Calls of active or inactive are those of the source.
Tests used:
[1] = cAMP pathway inhibition in counterscreen cell line – TR-FRET cAMP detection, counter-screen for MC4R biased antagonist project, dose response (AID 602305); format: functional, cell-based;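 also: U2OS cells stimulated with forskolin near its EC80 as the cAMP inducer; potency is for inhibition of forskolin-stimulated cAMP signaling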
[2] = target: Melanocortin receptor 4 (Homo sapiens, UniProt P32245); assay: inhibitors of MC4R cAMP signaling – cell-based, TR-FRET, biased antagonists, dose response (AID 602298); format: functional;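 also: antagonist potency against agonist-stimulated cAMP production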
[3] = test system: SN12K1; assay: cells; format: functional; conditions: Homo sapiens
[4] = test system: P388/ADR; assay: cells; format: functional; conditions: Mus musculus, P388/ADR
[5] = test system: P388; assay: cells; format: functional; conditions: Mus musculus
[6] = target: 72 kDa type IV collagenase (Homo sapiens, UniProt P08253); assay: Dose Response validation of uHTS RPN11 inhibitor hits using a MMP-2 Fluorescence assay.; format: functional
[7] = target: Prothrombin (Bos taurus, UniProt P00735); assay: thrombin protease inhibitors – biochemical, fluorescence polarization, uHTS hits, dose response (AID 602369); format: functional
[8] = target: 26S proteasome non-ATPase regulatory subunit 14 (Homo sapiens, UniProt O00487); assay: inhibition of proteasome subunit RPN11 – biochemical, fluorescence polarization, uHTS hits, confirmation (AID 602368); format: functional
[9] = target: T1, Carboxy-terminal domain RNA polymerase II polypeptide A small phosphatase 1 (Homo sapiens, UniProt Q9GZU7); assay: CTDSP1 inhibitors, concentration-response, biochemical, absorbance readout, ultra-high-throughput screen actives (AID 540297); format: functional
T1 sequence (Q9GZU7 whole entry): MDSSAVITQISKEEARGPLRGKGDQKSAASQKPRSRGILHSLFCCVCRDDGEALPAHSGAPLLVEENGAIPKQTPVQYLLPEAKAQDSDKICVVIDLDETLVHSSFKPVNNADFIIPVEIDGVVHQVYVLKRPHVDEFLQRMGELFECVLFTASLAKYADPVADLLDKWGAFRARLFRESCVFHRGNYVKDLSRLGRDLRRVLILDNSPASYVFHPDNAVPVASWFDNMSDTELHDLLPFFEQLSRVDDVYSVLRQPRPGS

[10] = target: T2, Cysteine protease ATG4B (Homo sapiens, UniProt Q9Y4P1); format: functional;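 also: Fluorescence-based dose-response confirmation assay measuring inhibition of ATG4B activity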
T2 sequence (Q9Y4P1 whole entry): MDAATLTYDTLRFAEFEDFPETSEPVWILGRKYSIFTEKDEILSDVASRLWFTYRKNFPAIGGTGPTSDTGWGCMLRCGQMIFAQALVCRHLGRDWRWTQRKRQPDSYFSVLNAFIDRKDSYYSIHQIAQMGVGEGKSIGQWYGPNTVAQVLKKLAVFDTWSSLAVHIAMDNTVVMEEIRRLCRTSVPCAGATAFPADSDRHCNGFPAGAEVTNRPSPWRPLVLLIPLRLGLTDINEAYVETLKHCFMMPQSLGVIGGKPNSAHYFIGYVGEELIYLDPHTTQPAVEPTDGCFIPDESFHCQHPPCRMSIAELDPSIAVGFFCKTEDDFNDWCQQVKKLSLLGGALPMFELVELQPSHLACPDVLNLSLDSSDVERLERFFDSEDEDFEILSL

[11] = target: T3, Leucine aminopeptidase (Plasmodium falciparum 3D7, UniProt Q8IL11); assay: P. falciparum M17LAP inhibitors, primary screen, biochemical, fluorogenic H-Leu-NHMec substrate, 1536-well (AID 1619); format: functional
T3 sequence (Q8IL11 whole entry): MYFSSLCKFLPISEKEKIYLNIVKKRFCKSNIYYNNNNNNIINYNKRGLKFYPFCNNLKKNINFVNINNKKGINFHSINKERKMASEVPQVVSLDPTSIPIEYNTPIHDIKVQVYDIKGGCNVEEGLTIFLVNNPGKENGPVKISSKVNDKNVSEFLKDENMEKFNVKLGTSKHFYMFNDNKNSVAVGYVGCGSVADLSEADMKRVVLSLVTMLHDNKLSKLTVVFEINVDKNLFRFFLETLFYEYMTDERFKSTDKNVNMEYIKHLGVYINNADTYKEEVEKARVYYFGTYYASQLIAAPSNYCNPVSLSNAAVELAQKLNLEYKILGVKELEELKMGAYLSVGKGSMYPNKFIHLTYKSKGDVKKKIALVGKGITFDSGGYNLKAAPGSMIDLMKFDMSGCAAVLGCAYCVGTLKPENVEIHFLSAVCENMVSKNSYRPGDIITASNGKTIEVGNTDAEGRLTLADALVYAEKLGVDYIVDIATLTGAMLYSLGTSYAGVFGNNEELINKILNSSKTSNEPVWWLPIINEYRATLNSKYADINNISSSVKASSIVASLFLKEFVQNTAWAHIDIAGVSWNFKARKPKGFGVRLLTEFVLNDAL

[12] = target: Phospholipase A2 (Homo sapiens, UniProt P04054); format: functional;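 also: confirmatory dose-response counterscreen on phospholipase A2, testing hits that came from an ultra-high-throughput screen for ATG4B inhibitors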
[13] = target: Heat shock protein HSP 90-alpha (Homo sapiens, UniProt P07900); format: functional, organism-based
[14] = test system: Streptococcus; assay: GAS UMAA2166 growth inhibition – luminescence, BacTiterGlo, counter-screen for streptokinase expression inhibitor project, dose response (AID 1915); format: functional, organism-based;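 also: potency for reduction of bacterial viability or growth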
[15] = NIH-3T3 fibroblast cytotoxicity, dose response, cytotoxicity control, cell-based, fluorescence, Alamar Blue, secondary assay (AID 2327); format: functional;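 also: NIH-3T3 mouse fibroblasts cultured with fluconazole at 8 µg/mL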
[16] = test system: Streptococcus sp. 'group A'; assay: Streptococcus pyogenes SK(-)GAS viability under kanamycin – luminescence, BacTiterGlo, confirmation, counter-screen for streptokinase expression inhibitor project, dose response (AID 1900); format: functional, organism-based
[17] = fluconazole-exposed Candida albicans growth modulators – fluorescence, retest, confirmation (AID 2467); format: functional, cell-based
[18] = blockers of CRF-binding protein–CRF-R2 complex – cell-based, uHTS hits, 384-well, dose response (AID 651639); format: functional, Homo sapiens; conditions: read-out: IC50_Mean
[19] = target: T4, Corticotropin-releasing factor receptor 2/Corticotropin-releasing factor-binding protein (Homo sapiens, UniProt P24387+Q13324); assay: Dose Response confirmation of uHTS hits for small molecule antagonists of the CRF-binding protein and CRF-R2 receptor complex.; format: functional; conditions: read-out: IC50_Mean
T4 sequence (Q13324 whole entry): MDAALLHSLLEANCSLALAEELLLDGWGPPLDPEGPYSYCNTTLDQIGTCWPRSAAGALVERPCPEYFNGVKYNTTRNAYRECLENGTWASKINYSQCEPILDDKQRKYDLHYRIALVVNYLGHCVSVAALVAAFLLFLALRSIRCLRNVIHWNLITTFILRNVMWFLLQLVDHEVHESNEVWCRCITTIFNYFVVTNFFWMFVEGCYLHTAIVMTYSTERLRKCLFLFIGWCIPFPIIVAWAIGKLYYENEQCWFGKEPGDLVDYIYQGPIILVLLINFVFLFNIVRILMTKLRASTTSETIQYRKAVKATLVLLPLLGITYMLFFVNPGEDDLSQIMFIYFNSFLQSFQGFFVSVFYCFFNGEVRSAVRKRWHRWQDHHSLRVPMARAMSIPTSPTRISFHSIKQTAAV
T4 sequence (P24387 whole entry): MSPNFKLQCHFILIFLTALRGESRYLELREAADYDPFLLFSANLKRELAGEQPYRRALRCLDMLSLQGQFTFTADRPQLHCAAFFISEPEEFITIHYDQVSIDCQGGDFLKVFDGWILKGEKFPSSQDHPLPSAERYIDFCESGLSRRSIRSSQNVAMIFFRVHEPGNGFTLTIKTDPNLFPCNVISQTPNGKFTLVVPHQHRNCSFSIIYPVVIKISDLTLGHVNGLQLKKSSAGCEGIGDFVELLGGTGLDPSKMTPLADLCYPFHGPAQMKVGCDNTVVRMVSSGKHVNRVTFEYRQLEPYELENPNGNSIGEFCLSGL

[20] = target: T5, Streptokinase A (Streptococcus pyogenes serotype M1, UniProt P10520); assay: viability-normalized secreted streptokinase activity reduction – plasminogen activation absorbance, OD405, dose response (AID 1914); format: functional, Streptococcus pyogenes M1 GAS;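 also: secreted streptokinase activity via plasminogen activation per viability signal from cell pellet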
T5 sequence (P10520 whole entry): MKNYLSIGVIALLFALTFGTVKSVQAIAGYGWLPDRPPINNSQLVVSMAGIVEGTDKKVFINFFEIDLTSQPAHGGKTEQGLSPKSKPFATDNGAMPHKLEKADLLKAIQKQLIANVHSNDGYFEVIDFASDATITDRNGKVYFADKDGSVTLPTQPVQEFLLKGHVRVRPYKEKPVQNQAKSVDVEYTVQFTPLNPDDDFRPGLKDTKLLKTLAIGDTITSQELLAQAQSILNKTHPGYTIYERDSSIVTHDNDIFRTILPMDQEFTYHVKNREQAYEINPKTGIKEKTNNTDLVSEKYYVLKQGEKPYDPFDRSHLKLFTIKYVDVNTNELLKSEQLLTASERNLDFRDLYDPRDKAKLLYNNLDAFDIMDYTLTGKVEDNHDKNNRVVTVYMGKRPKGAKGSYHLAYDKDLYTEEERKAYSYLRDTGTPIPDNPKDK

[21] = target: T4, Corticotropin-releasing factor receptor 2/Corticotropin-releasing factor-binding protein; assay: activators of CRF receptor 2 with binding protein – uHTS hits, confirmation (AID 602473); format: functional; conditions: read-out: EC50_Mean
[22] = reduction of Shn3 3'UTR-driven luciferase in osteoblasts – cell-based, Clone20 osteoblasts, firefly luciferase, cherry-picked, dose response (AID 624132); format: functional;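 also: firefly luciferase luminescence from reporter carrying the Shn3 3'UTR in osteoblasts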
[23] = loss of viability in HepG2 cells – cell-based, CellTiter-Glo, cherry-picked, cytotoxicity control for Shn3 inhibitor project, dose response (AID 624134); format: functional
[24] = non-specific 3'UTR reporter inhibition in Clone20-Shn3RL – cell-based, Renilla luciferase, cherry-picked, counter-screen for Shn3 inhibitor project, dose response (AID 624133); format: functional
[25] = target: T6, Tyrosine-protein phosphatase non-receptor type 7 (Homo sapiens, UniProt P35236); assay: HePTP tyrosine phosphatase activity blockers – biochemical, absorbance, leukemia target, primary screen (AID 521); format: functional
T6 sequence (P35236 whole entry): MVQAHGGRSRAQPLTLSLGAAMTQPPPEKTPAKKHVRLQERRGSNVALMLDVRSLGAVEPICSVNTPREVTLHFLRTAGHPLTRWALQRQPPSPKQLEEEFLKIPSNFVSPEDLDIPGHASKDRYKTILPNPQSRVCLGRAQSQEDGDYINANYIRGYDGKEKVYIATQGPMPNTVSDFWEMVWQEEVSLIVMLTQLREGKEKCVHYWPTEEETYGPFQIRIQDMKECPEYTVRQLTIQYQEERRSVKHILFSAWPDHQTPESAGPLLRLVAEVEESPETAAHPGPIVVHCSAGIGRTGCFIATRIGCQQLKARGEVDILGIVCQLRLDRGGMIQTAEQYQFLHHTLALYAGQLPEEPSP

[26] = target: Disintegrin and metalloproteinase domain-containing protein 17 (Homo sapiens, UniProt P78536); assay: inhibition of ADAM17 substrate cleavage – biochemical, quenched FRET substrate, counter-screen for ADAM10 exosite inhibitor project, dose response (AID 743253)
Sequence of Disintegrin and metalloproteinase domain-containing protein 17 (P78536 whole entry, the tested form may be a part): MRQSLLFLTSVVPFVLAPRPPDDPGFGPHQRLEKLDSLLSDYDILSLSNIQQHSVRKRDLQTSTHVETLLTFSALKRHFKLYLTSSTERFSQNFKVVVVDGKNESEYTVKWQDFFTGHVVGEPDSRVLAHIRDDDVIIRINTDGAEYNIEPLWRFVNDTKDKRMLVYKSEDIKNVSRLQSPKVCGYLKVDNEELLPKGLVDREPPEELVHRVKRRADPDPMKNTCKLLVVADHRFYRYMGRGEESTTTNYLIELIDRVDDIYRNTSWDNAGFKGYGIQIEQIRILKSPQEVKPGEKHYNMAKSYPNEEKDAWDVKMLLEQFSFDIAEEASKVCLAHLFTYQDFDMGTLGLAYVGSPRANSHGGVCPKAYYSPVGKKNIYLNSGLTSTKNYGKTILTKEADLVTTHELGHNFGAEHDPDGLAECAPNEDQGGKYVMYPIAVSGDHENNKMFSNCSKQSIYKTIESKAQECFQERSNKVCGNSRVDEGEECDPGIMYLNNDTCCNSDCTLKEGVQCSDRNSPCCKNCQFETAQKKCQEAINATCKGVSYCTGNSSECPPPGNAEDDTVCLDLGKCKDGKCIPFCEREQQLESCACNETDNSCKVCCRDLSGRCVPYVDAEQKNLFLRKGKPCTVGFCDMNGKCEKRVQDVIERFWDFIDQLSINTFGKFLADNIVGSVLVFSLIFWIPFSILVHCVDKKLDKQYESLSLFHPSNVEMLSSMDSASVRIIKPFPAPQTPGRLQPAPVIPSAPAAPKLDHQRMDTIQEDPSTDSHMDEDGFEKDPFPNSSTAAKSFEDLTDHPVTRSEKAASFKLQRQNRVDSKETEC

Sequence of Phospholipase A2 (P04054 whole entry): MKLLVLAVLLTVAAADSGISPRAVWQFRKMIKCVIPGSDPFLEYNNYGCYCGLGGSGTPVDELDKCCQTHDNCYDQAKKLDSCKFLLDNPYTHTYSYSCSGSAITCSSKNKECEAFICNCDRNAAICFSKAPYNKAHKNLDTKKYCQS
Sequence of 72 kDa type IV collagenase (P08253 whole entry): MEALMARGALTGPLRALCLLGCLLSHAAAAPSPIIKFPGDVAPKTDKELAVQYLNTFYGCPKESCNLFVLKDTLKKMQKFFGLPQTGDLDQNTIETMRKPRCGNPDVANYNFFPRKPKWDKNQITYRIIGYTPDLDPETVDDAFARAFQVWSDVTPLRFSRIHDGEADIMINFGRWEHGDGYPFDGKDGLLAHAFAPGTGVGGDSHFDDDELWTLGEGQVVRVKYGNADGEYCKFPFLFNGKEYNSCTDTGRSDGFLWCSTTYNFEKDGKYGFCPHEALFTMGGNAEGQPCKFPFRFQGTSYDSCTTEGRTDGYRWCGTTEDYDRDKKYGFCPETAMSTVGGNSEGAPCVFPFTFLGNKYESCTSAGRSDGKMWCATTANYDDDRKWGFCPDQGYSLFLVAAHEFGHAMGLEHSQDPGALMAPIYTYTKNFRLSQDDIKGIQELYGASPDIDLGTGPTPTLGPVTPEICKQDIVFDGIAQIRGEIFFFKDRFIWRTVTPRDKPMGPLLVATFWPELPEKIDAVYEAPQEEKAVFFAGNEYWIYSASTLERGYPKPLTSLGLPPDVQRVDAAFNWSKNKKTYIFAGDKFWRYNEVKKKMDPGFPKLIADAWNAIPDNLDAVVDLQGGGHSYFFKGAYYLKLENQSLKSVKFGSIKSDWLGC
Sequence of 26S proteasome non-ATPase regulatory subunit 14 (O00487 whole entry, the tested form may be a part): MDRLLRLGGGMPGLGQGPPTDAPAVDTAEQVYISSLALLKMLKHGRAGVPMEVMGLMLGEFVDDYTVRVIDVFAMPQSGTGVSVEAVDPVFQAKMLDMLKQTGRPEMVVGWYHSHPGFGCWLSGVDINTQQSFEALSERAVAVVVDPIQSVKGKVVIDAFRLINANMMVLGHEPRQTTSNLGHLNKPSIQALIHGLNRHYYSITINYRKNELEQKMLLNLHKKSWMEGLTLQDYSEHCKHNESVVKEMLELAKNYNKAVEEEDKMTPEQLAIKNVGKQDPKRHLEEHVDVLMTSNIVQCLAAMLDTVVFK
Sequence of Melanocortin receptor 4 (P32245 whole entry): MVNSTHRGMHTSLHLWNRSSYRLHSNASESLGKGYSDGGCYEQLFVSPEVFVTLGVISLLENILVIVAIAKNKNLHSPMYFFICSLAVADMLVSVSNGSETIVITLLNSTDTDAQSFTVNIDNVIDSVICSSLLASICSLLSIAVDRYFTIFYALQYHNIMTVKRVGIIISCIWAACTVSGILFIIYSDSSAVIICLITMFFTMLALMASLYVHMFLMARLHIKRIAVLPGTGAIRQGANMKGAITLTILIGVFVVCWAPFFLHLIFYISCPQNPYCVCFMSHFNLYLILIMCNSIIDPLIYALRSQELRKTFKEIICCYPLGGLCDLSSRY

Cc1ncn(-c2ccc(C(=O)Oc3ccccc3)cn2)n1
IC50 [1]: > 64.5 µM (inactive)
IC50 [2]: > 64.5 µM (inactive)

N/C(=N\O)N/N=C/c1ccc2c(c1)OCCO2
GI50 [3]: 2.88 µM (inactive)
GI50 [4]: 12.8 µM (inactive)
GI50 [5]: 13.1 µM (inactive)

CCc1ccccc1OCC(=O)Nc1ccc(N2CCCC2)cc1C
IC50 [6]: 89 µM (active)
IC50 [7]: 9.96 µM (active)
IC50 [8]: 46.2 µM (active)

O=[N+]([O-])c1cc(C(F)(F)F)cc2c1SC1=Nc3ccccc3CN12
GI50 [3]: > 100 µM (inactive)
GI50 [4]: > 100 µM (inactive)
GI50 [5]: > 100 µM (inactive)

O=C(O)COc1ccccc1/C=C1\SC(=S)N(/N=C/c2ccccc2O)C1=O
IC50 [9]: 8.53 µM (active)
IC50 [10]: 27.1 µM (inactive)
IC50 [11]: 21.3 µM (active)
IC50 [12]: 32.1 µM (inactive)

COc1ccc(/C=C/C(=O)c2cc(Br)ccc(=O)c2O)cc1
AC50 [13]: 4.22 µM (active)

CCOC(=O)C1=C(Nc2ccc(OC)cc2)S/C(=C\c2ccc(-c3ccccc3C(=O)O)o2)C1=O
IC50 [6]: > 100 µM (inactive)
IC50 [7]: 13.1 µM (active)
IC50 [8]: 17.8 µM (active)

CC(C)C(Sc1nc(-c2ccccc2)cc(-c2ccccc2)c1C#N)C(=O)O (stereo unspecified)
EC50 [14]: 9.19 µM (active)
EC50 [15]: 26.8 µM (active)
IC50 [10]: 11.3 µM (active)
EC50 [16]: 7.77 µM (active)
EC50 [17]: 2.61 µM (active)
IC50 [12]: 9.87 µM (active)
IC50 [18]: > 20 µM (inactive)
IC50 [19]: 6.76 µM (active)
EC50 [20]: 10.1 µM (active)
EC50 [21]: 35.7 µM (active)

Cc1n[nH]c2ccc(-c3cncc(OC[C@@H](N)Cc4c[nH]c5ccccc45)c3)cc12 [A-443654]
AC50 [22]: 1.77 µM (active)
AC50 [23]: 7.4 µM (active)
AC50 [24]: 2.85 µM (active)

COCOc1ccc(OC)cc1
GI50 [3]: > 100 µM (inactive)
GI50 [4]: > 100 µM (inactive)
GI50 [5]: > 100 µM (inactive)

O=C(Oc1c(-c2ccccc2)c(=O)n2c3c(cccc13)CC2)c1ccc(F)cc1
IC50 [10]: 14.1 µM (active)
IC50 [12]: 10.9 µM (active)

CSCCC(NC(=O)c1ccc([N+](=O)[O-])cc1Cl)C(=O)OC(C)C(=O)NCc1ccco1 (stereo unspecified)
IC50 [1]: 47.4 µM (inactive)
IC50 [2]: > 64.6 µM (inactive)

N/C(=N/O)N/N=C\c1cc(Cl)cc(Cl)c1O
GI50 [3]: 0.366 µM (active)
GI50 [4]: 0.998 µM (active)
GI50 [5]: 0.0182 µM (active)

COc1ccc(-c2n[nH]c(C(F)(F)F)c2-c2cc3ccccc3o2)c(O)c1
IC50 [10]: 9.42 µM (active)
IC50 [12]: 7.64 µM (active)
IC50 [25]: > 100 µM (not active)
IC50 [26]: > 69.5 µM (inactive)

From ChEMBL document CHEMBL1201862, “PubChem BioAssay data set” (2004)
